Data from the supplement of paper PMC10307832.

Columns and labels:
Experiment in all cases: relative viability (nuclei count vs DMSO), 5 days (fraction); higher = more cells survive
[1] = compound: CN[C@@H]1C[C@H]2O[C@@](C)([C@@H]1OC)n1c3ccccc3c3c4c(c5c6ccccc6n2c5c31)C(=O)NC4 [Staurosporine] + Cc1cc(Nc2cc(N3CCN(C)CC3)nc(Sc3ccc(NC(=O)C4CC4)cc3)n2)n[nH]1 [Tozasertib] (partner 0.1 µM)
In short: (§1)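 Each reported value is a median over duplicate plates. It expresses relative viability: treated-well nuclei count divided by vehicle-well nuclei count. Lung cancer cell lines in 1536-well plates were dosed by pin tool a day after seeding, alone with one drug or with a fixed anchor-drug dose plus five library-drug doses (not always all listed) in √10 steps, and nuclei were counted after 5 days.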

[2] = compound: CC1=C(CC(=O)O)c2cc(F)ccc2/C1=C\c1ccc([S+](C)[O-])cc1 [Sulindac] + Cc1nc(NC(=O)N2CCC[C@H]2C(N)=O)sc1-c1ccnc(C(C)(C)C(F)(F)F)c1 [Alpelisib] (partner 2 µM)
In short: as §1

[3] = compound: O=c1[nH]cc(F)c(=O)[nH]1 [5-Fluorouracil] + NC(=O)Nc1cc(-c2cccc(F)c2)sc1C(=O)N[C@H]1CCCNC1 [AZD7762] (partner 0.2 µM)
In short: as §1

[4] = compound: O=c1[nH]cc(F)c(=O)[nH]1 [5-Fluorouracil] + CC1(C)CCC(c2ccc(Cl)cc2)=C(CN2CCN(c3ccc(C(=O)NS(=O)(=O)c4ccc(N[C@H](CCN5CCOCC5)CSc5ccccc5)c(S(=O)(=O)C(F)(F)F)c4)cc3)CC2)C1 [Navitoclax] (partner 0.5 µM)
In short: as §1

| Cell Line | relative viability ([1]; first compound 0.005 µM) | relative viability ([1]; first compound 0.01581 µM) | relative viability ([1]; first compound 0.05 µM) | relative viability ([1]; first compound 0.1581 µM) | relative viability ([1]; first compound 0.5 µM) | relative viability ([2]; first compound 0.08 µM) | relative viability ([2]; first compound 0.253 µM) | relative viability ([2]; first compound 0.8 µM) | relative viability ([2]; first compound 2.53 µM) | relative viability ([2]; first compound 8 µM) | relative viability ([3]; first compound 0.02 µM) | relative viability ([3]; first compound 0.2 µM) | relative viability ([3]; first compound 0.6325 µM) | relative viability ([3]; first compound 2 µM) | relative viability ([4]; first compound 0.02 µM) | relative viability ([4]; first compound 0.2 µM) | relative viability ([4]; first compound 0.6325 µM) | relative viability ([4]; first compound 2 µM) |
| --- | --- | --- | --- | --- | --- | --- | --- | --- | --- | --- | --- | --- | --- | --- | --- | --- | --- | --- |
| PC-3 [JPC-3] | 0.919 | 0.598 | 0.512 | 0.321 | 0.344 | 1.18 | 1.03 | 0.95 | 1.08 | 1.04 | 0.815 | 0.855 | 0.908 | 0.816 | 0.793 | 0.759 | 0.767 | 0.63 |
| NCI-H1703 |  |  |  |  |  | 0.37 | 0.346 | 0.301 | 0.461 | 0.341 | 0.103 | 0.072 | 0.118 | 0.118 | 1.32 | 1.08 | 0.817 | 0.61 |
| EBC-1 |  |  |  |  |  | 0.993 | 0.944 | 0.848 | 0.79 | 0.887 |  |  |  |  | 0.342 | 0.405 | 0.44 | 0.339 |
| NCI-H1792 |  |  |  |  |  | 0.959 | 0.717 |  | 0.726 | 0.866 | 0.641 | 0.303 | 0.213 | 0.218 | 0.64 | 0.591 | 0.131 | 0.118 |
| ABC-1 | 0.134 | 0.104 | 0.125 | 0.111 | 0.111 | 1.25 | 1.02 | 0.811 | 0.861 | 1 | 0.754 | 0.933 | 0.722 | 0.634 |  |  |  |  |
| NCI-H1650 | 0.332 | 0.302 | 0.17 | 0.203 | 0.123 |  |  |  |  |  |  |  |  |  | 1.29 | 0.82 | 0.63 | 0.294 |
